Measured values from patent US20100167329A1, “DEVICE FOR DRUG SCREENING” (Respiratorius AB, priority 2006, published 2010).

Tested on: small human bronchi
Experiment: Repeated LTD4 control contractions of tissue sample in the perfusion chamber (long time stability)
Details: LTD4 10 nM, 30 min, alternating with LTD4 free solution 60 min; repeated cycles n=8; after 14 h of measurements; FIG. 2
Procedure: One embodiment of the present invention is illustrated in FIG. 1, wherein the chamber 1 is made out of titanium and has a volume of typically 5 mL. The chamber is mounted on a mounting piece 2 of silver, which contains means for controlling the temperature of the chamber. An inlet 3 and outlet 4 allow a continuous flow of a physiological solution through the chamber ensuring a constant concentration of the substances in the chamber. Tissue sample is placed on hooks 8 and the hooks are placed in the chamber in a suitable position so that the tissue sample is completely immersed in the liquid flowing through the chamber. One of the hooks is attached to a force transducer 9 and the other is a fixed hook. Test substances are injected in the liquid prior to the liquid entering the chamber. As the tissue sample reacts to the substances present in the liquid the force transducer register the tension in the tissue sample due to contraction or relaxation. The force transducer is preferably AME801, which is commercially available from Infineon technologies.
A description of embodiments of the device according to the invention is shown in the previous section. In FIG. 2 control contractions in small human bronchi exposed to repeated (n=8) cycles with LTD4 (10 nM, 30 min) and LTD4 free solution (60 min) for 14 hours, are shown. The error bars show a low variance and good repeatability. […]

Structure (SMILES): CCCCC/C=C\C\C=C/C=C/C=C/[C@@H](SC[C@H](N)C(=O)NCC(=O)O)[C@@H](O)CCCC(=O)O [LTD4]
- original contraction of the bronchi remaining: ~80%
